Substitutions are numbered along the chain they refer to.
Legend:
Test in all cases: whole-cell patch clamp, HEK293T cells expressing mutant
Assay type in all cases: cell-based
Conditions in all cases: for relative responsiveness: 100 µM agonist 2 s, relative to ATP (100%)
rP2X4R D280A mutant = molecular target: T1, rP2X4R D280A mutant (Rattus norvegicus, UniProt P51577, D280A)
T1 construct: expressed in transfected cells; host or cells: HEK293T
T1 sequence (P51577 1-388 D280A): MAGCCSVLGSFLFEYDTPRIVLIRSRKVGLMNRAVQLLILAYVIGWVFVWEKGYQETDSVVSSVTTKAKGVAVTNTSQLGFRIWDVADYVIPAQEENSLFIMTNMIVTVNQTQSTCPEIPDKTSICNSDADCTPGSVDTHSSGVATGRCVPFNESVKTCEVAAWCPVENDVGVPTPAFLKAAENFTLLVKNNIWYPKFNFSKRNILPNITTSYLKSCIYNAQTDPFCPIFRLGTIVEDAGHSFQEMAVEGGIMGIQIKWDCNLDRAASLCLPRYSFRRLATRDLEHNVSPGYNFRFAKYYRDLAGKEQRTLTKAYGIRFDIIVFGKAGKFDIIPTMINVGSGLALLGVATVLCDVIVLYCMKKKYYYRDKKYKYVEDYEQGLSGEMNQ
Experimental: (§1) To express the recombinant channels, we used human embryonic kidney (HEK) 293T cells (American Type Culture Collection, Rockville, MD, USA) grown in Dulbecco modified Eagle’s medium (Thermo Fisher Scientific, Waltham, MA) supplemented with 10% fetal bovine serum (Sigma-Aldrich, St Louis, MO), 50 U/ml penicillin and 50 µg/ml streptomycin (both Thermo Fisher Scientific, Waltham, MA) in a humidified 5% CO2 and 95% air at 37°C. Cells were cultured in 75 cm^2 plastic culture flasks (NUNC, Rochester, NY) for 36–72 hours until reaching 80–95% confluence. Before the day of transfection, the cells were plated on 35 mm culture dishes (Sarstedt, Newton, NC) and incubated at 37°C for at least 24 h. Transfection was done using 2 µg of either WT or mutant receptor DNA with 2 µl of JetPrime reagent in 2 ml of Dulbecco modified Eagle’s medium, according to manufacturer’s instructions (PolyPlus-transfection, Illkirch, France). Transfected cells were identified by the fluorescence signal of EGFP using the Olympus IX71 inverted research microscope with fluorescence illuminators (Model IX71; Olympus, Melville, NY).
(§2) cDNAs encoding the sequences of the rP2X4 and mutated subunits were subcloned into the pIRES2-EGFP vector (Clontech, Mountain View, CA, USA). To generate the mutants, oligonucleotides (synthesized and provided by VBC-Genomics, Vienna, Austria or Sigma Aldrich) containing specific mutagenesis mismatches were introduced into the rP2X4/pIRES2-EGFP template using PfU Ultra DNA polymerase (Thermo Fisher Scientific). A High-Speed Plasmid Mini Kit (Geneaid, Taipei City, Taiwan) was used to isolate the plasmids for transfection. Dye terminator cycle sequencing (ABI PRISM 3100, Applied Biosystems, Foster City, CA) was used to identify and verify the presence of the mutations. The sequencing was performed by the DNA Sequencing Laboratory, Institute of Microbiology, ASCR, Prague.
(§3) ATP-induced currents were recorded from whole cells clamped to −60 mV using an Axopatch 200B patch-clamp amplifier (Axon Instruments, Union City, CA). The recordings were captured and stored using the Digidata 1322A and pClamp9 software package (Axon Instruments). During the experiments, the cell culture was perfused with a bath solution containing: 142 mM NaCl, 3 mM KCl, 2 mM CaCl2, 1 mM MgCl2, 10 mM 4-(2-Hydroxyethyl)piperazine-1-ethanesulfonic acid (HEPES) and 10 mM D-glucose, adjusted to pH 7.3 with 1 M NaOH. The patch electrodes were filled with a solution containing: 154 mM CsCl, 11 mM EGTA and 10 mM HEPES, adjusted to pH 7.2 with 1.6 M CsOH. The whole-cell configuration was used to abolish the influence of natively present metabotropic receptors for ATP and we used intracellular cesium to block any kind of possible background potassium conductance. Potency of ATP was measured based on the activation of naïve (not previously stimulated) receptors using a short (2–5 s) application of various concentrations of ATP. The results are expressed as molar concentration of ATP required to produce 50% of the maximal response (EC50). One or two responses were recorded from one cell, if not otherwise stated, and responses from different cells were pooled. The maximum current amplitude (Imax) was measured in response to application of supramaximal concentrations (100–1000 µM) of ATP. Responsiveness to P2XR agonists 2-MeS-ATP, ATPγS, BzATP, and α,β-meATP, all applied in 100 µM concentration, was expressed as percentage of response in comparison to 100 µM ATP treatment for selected mutants. In all mutants, the whole cell currents were also measured in the presence of 3 µM IVM, which was dissolved in dimethyl sulfoxide, stored in stock solutions at 10 mM, and diluted to required concentrations in bath solution in the day of experiment. The control and drug containing solutions were applied via a rapid (exchange time 30–40 ms) perfusion system (RSC-200, BIOLOGIC, Claix, France). All other chemicals are from Sigma-Aldrich. […]

rP2X4R L284A mutant = molecular target: T2, rP2X4R L284A mutant (Rattus norvegicus, UniProt P51577, L284A)
T2 construct: expressed in transfected cells; host or cells: HEK293T
T2 sequence (P51577 1-388 L284A): T1 sequence (P51577 1-388 D280A) with A280D, L284A
Experimental: as §1, §2, §3

rP2X4R T211A mutant = molecular target: T3, rP2X4R T211A mutant (Rattus norvegicus, UniProt P51577, T211A)
T3 construct: expressed in transfected cells; host or cells: HEK293T
T3 sequence (P51577 1-388 T211A): T1 sequence (P51577 1-388 D280A) with T211A, A280D
Experimental: as §1, §2, §3

[1] = 100 µM ATP 60 s, biexponential fit
[2] = contribution of τdes2, 100 µM ATP 60 s
[3] = decay after removal of 1 or 3 µM ATP, 3 µM IVM
[4] = naïve receptors, 2–5 s application
[5] = 3 µM IVM 4-6 min vs IVM-untreated

Compound: 2′(3′-O-(4-Benzoylbenzoyl)adenosine 5′-triphosphate [BzATP]
- relative responsiveness (rP2X4R D280A mutant): 25.4±1.5%
- relative responsiveness (rP2X4R L284A mutant): 20.6±0.2 %
- relative responsiveness (rP2X4R T211A mutant): 23.4±4.7 %

Compound: CSc1nc(N)c2ncn([C@@H]3O[C@H](COP(=O)(O)OP(=O)(O)OP(=O)(O)O)[C@@H](O)[C@H]3O)c2n1 [2-MeS-ATP, 2-(Methylthio)adenosine 5′-triphosphate]
- relative responsiveness (rP2X4R D280A mutant): 56.3±7.8%
- relative responsiveness (rP2X4R L284A mutant): 69.0±3.0%
- relative responsiveness (rP2X4R T211A mutant): 79.3±6.7%

Compound: Nc1ncnc2c1ncn2[C@@H]1O[C@H](COP(=O)(O)OP(=O)(O)OP(=O)(O)O)[C@@H](O)[C@H]1O [ATP]
- EC50 rightward shift compared to WT (rP2X4R D280A mutant): approximately 10 fold
- τdes1 (rP2X4R D280A mutant; [1]): 3.9 ± 1.2 s
- τdes2 (rP2X4R D280A mutant; [1]): 22.9 ± 7.8 s
- Imax (rP2X4R D280A mutant; 100–1000 µM ATP): 0.7 ± 0.1 nA
- Imax+IVM (rP2X4R D280A mutant; ATP after 3 µM IVM 4-6 min): 3.6 ± 0.4 nA
- A2 /(A1+A2) (rP2X4R D280A mutant; [2]): 62 ± 6%
- τoff +IVM (rP2X4R D280A mutant; [3]): 5.5 ± 0.3 s
- EC50 (rP2X4R D280A mutant; [4]): 26 ± 8.2 µM
- τdes (rP2X4R D280A mutant; weighted, 100 µM ATP 60 s): 15 ± 3.7 s
- τdes1 (rP2X4R L284A mutant; [1]): 0.8 ± 0.1 s
- τdes2 (rP2X4R L284A mutant; [1]): 7.2 ± 1.0 s
- Imax (rP2X4R L284A mutant; 100–1000 µM ATP): 2.4 ± 0.3 nA
- Imax+IVM (rP2X4R L284A mutant; ATP after 3 µM IVM 4-6 min): 4.1 ± 0.3 nA
- A2 /(A1+A2) (rP2X4R L284A mutant; [2]): 60 ± 5%
- τoff +IVM (rP2X4R L284A mutant; [3]): 28 ± 2.3 s
- EC50 (rP2X4R L284A mutant; [4]): 3.9 ± 1.9 µM
- τdes (rP2X4R L284A mutant; weighted, 100 µM ATP 60 s): 4.8 ± 0.9 s
- τdes1 (rP2X4R T211A mutant; [1]): 0.9 ± 0.4 s
- τdes2 (rP2X4R T211A mutant; [1]): 8.3 ± 2.4 s
- Imax (rP2X4R T211A mutant; 100–1000 µM ATP): 2.3 ± 0.3 nA
- Imax+IVM (rP2X4R T211A mutant; ATP after 3 µM IVM 4-6 min): 3.9 ± 0.7 nA
- A2 /(A1+A2) (rP2X4R T211A mutant; [2]): 60 ± 8%
- τoff +IVM (rP2X4R T211A mutant; [3]): 28 ± 2.5 s
- EC50 (rP2X4R T211A mutant; [4]): 2.6 ± 0.6 µM
- τdes (rP2X4R T211A mutant; weighted, 100 µM ATP 60 s): 5.0 ± 1.1 s

Compound: Nc1ncnc2c1ncn2[C@@H]1O[C@H](CO[P@](=O)(O)O[P@](=O)(O)O[P@@](=O)(O)S)[C@@H](O)[C@H]1O [ATPγS, Adenosine 5′-(γ-thio)triphosphate]
- relative responsiveness (rP2X4R D280A mutant): 55.7±3.8%
- relative responsiveness (rP2X4R L284A mutant): 32.4±8.2%
- relative responsiveness (rP2X4R T211A mutant): 61.8±6.1%

Compound: CC[C@H](C)[C@H]1O[C@]2(CC[C@@H]1C)C[C@@H]1C[C@@H](C/C=C(\C)[C@@H](O[C@H]3C[C@H](OC)[C@@H](O[C@H]4C[C@H](OC)[C@@H](O)[C@H](C)O4)[C@H](C)O3)[C@@H](C)/C=C/C=C3\CO[C@@H]4[C@H](O)C(C)=C[C@@H](C(=O)O1)[C@]34O)O2 [IVM, ivermectin]
- Fold incr. Imax (rP2X4R D280A mutant; [5]): 5.1 ± 0.5 fold
- Fold incr. Imax (rP2X4R L284A mutant; [5]): 1.7 ± 0.1 fold
- Fold incr. Imax (rP2X4R T211A mutant; [5]): 1.6 ± 0.3 fold

Compound: Nc1ncnc2c1ncn2C1OC(COP(=O)(O)CP(=O)(O)OP(=O)(O)O)C(O)C1O (stereo not drawn) [α,β-meATP, α,β-methyleneadenosine 5′-triphosphate]
- relative responsiveness (rP2X4R D280A mutant): 33.1±6.0%
- relative responsiveness (rP2X4R L284A mutant): 22.2±3.9%
- relative responsiveness (rP2X4R T211A mutant): 39.1±7.2%

Source: paper PMC4232510, “Identification of Functionally Important Residues of the Rat P2X4 Receptor by Alanine Scanning Mutagenesis of the Dorsal Fin and Left Flipper Domains” (PLoS ONE, 2014)
